Data: PMC8145596, “Novel Chemically Modified Curcumin (CMC) Derivatives Inhibit Tyrosinase Activity and Melanin Synthesis in B16F10 Mouse Melanoma Cells” (Biomolecules, 2021)
Entries after “also recorded” stand apart in the source; their conditions may differ.

Assays:
[1] = target: T1, mushroom tyrosinase (Agaricus bisporus, UniProt C7FF04); test: Diphenolase activity assay of mushroom tyrosinase (L-DOPA substrate); type: biochemical; settings: for diphenolase inhibitory potency: compared with CMC2.24; for mechanism of inhibition of diphenolase activity: L-B and Dixon plots, nonlinear curve fitting; for Ki: read-out: apparent Ki, diphenolase (L-DOPA)
T1 sequence (C7FF04 1-392): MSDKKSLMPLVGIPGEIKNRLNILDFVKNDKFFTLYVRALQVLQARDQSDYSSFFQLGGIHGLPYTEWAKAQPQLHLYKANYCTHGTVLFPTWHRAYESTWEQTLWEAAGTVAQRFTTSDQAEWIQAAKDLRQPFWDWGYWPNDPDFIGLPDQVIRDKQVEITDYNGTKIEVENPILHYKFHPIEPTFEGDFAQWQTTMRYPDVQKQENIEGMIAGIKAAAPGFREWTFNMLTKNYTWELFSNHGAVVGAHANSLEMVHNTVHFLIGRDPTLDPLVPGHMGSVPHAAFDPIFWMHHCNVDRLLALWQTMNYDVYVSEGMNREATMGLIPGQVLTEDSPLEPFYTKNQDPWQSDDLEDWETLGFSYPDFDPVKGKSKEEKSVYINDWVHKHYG
Protocol: The direct effects of the compounds on the diphenolase activity of tyrosinase were tested using mushroom tyrosinase with a fixed concentration of L-DOPA as the substrate. Briefly, 80 µL of each compound prepared at different concentrations in 50 mM sodium phosphate buffer (pH 6.8) was added to wells of a 96-well microplate, followed by 100 µL of freshly prepared substrate solution (3 mM L-DOPA in buffer). The reaction was initiated by adding 20 µL of mushroom tyrosinase (final concentration of enzyme in wells was 3.5 µg/mL). The production of Dopachrome was monitored by measuring the absorbance at 475 nm every 30 s for a period of 30 min at 30 °C, using a microplate reader in the kinetic mode. The slopes of the plots of absorbance vs. time were calculated for comparison of enzyme activity in the presence of each of the inhibitors to that of the inhibitor-free control.
(§1) In order to study the mechanism of inhibition of tyrosinase activity by the compounds as a function of substrate concentration, we conducted a kinetic study of monophenolase and diphenolase activities at multiple concentrations of substrates. For the monophenolase activity assay, the final concentration of enzyme was 12.5 µg/mL and the final substrate concentrations were 0.125, 0.25, 0.5 and 1 mM, while for diphenolase activity assay, the final concentration of enzyme was 3.5 µg/mL and the final substrate concentrations ranged from 0.1–3 mM. The slopes from the linear range of the progress curves of absorbance at 475 nm vs. time were recorded as apparent velocities and the reciprocal values, 1/v, were plotted as functions of the reciprocal values of the substrate concentrations at different fixed inhibitor concentrations according to the method of Lineweaver and Burk (L-B). Dixon plots of the reciprocal velocity values, (1/v), as functions of the inhibitor concentrations at different fixed substrate concentrations were also constructed to investigate further the apparent mode of inhibition by the compounds.
(§2) We have also analyzed the inhibition data using nonlinear curve fitting algorithms which are more robust than the linearized L-B and Dixon plotting methods that can weigh the data from evenly spaced concentrations disproportionately. The inhibition constants were calculated by non-linear least squares curve fitting using a modified Levenberg-Marquardt algorithm and data was fitted to models of pure competitive, noncompetitive, and uncompetitive inhibition using Enzfitter software (version 2.0, Biosoft, Cambridge, UK). This analysis was undertaken to assess the apparent potency of compounds, PC, CMC2.24, and CMC2.23 for each putative mode of inhibition.

[2] = test system: B16F10 mouse melanoma cells; test: Melanin levels in B16F10 cells; type: cell-based; settings: for suppression of melanin levels: 48 h
Protocol: B16F10 cells (1 × 10^5 cells/well) were seeded in 12-well plates and cultured for 24 h. The medium was then replaced with compounds at nontoxic concentrations that were selected on the basis of the MTS assay and incubated for another 48 h. After the treatments, the cells were detached using TrypLE (1×), and cell pellets were washed in PBS. Cell pellets were visually observed for lightening of the pigment. After aspiration, 250 μL of 1N NaOH was added and heated to 70 °C to solubilize melanin. The aliquots were then transferred to a 96-well plate and absorbance was read at 475 nm using a microplate reader. The absorbance was normalized to total protein content and was expressed as % of control.

[3] = test system: tyrosinase activity in B16F10 cells; test: Intracellular tyrosinase activity in B16F10 cell lysates; type: cell-based, mouse; settings: 48 h
Protocol: B16F10 cells (4 × 10^4 cells/well in 1 mL medium) were cultured in 24-well plates for 24 h. After that, the medium was replaced by fresh medium containing the compounds, and further incubated for 48 h. At the end of treatments, the cells were harvested, and cell pellets were washed in PBS and lysed and then centrifuged. Lysates (50 µL) were then aliquoted in a 96-well plate and 150 µL of 3 mM L-DOPA was added. The absorbance was measured at 475 nm every 30 s for 40 min at 30 °C using a microplate reader in the kinetic mode. The tyrosinase activity was calculated from the slope of the linear range of the velocity in the presence of each test compound and normalized to the total protein content and reported as % of control.

[4] = target: T2, α-glucosidase enzyme from Baker’s yeast (Saccharomyces cerevisiae, UniProt P53341); test: Cell-free α-glucosidase assay; type: biochemical
T2 construct: purchased Sigma-Aldrich (St. Louis, MO, USA)
T2 sequence (P53341 whole entry): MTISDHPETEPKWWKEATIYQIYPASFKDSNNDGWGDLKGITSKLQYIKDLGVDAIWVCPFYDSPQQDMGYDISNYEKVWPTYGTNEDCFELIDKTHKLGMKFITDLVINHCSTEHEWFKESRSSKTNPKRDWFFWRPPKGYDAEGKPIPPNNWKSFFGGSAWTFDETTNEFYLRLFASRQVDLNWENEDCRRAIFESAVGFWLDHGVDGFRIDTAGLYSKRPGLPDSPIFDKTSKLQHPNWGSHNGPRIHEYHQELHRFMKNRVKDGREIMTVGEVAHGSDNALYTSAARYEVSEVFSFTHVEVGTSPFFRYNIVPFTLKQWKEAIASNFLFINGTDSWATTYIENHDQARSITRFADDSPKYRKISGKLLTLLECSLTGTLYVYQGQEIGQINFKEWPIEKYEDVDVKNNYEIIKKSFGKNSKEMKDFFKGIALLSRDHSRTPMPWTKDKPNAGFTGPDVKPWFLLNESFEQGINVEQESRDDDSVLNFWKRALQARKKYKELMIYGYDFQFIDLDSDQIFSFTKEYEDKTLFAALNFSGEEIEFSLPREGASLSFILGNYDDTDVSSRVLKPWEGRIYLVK
Protocol: The effects of compounds on α-glucosidase were assayed based on the method decribed previously with some modifications. 80 µL of samples (prepared in 0.05 M phosphate buffer, pH 6.8) were aliquoted in a 96-well microplate followed by the addition of 100 µL of 2.4 mM pNG substrate solution. A volume of 20 µL of 0.45 units of α-glucosidase enzyme from Baker’s yeast prepared in 0.05 M buffer was added to start the reaction; the rate of the formation of p-nitrophenol was monitored at 405 nm for 15 min at 37 °C in a microplate reader in kinetic mode. The enzyme activity (%) was calculated as: (rate of sample reaction/rate of control reaction) × 100%.

[5] = test system: cAMP levels in B16F10 cells; test: cAMP levels by competitive ELISA in B16F10 lysates; type: cell-based, mouse; settings: for effect on cAMP levels: all concentrations tested
Text: For assaying the levels of cAMP in B16F10 cellular lysates, a competitive ELISA (Enzo Life Sciences, Farmingdale, NY, USA) was used in non-acetylated format based on manufacturer instructions.

[6] = target: T1, mushroom tyrosinase; test: Monophenolase activity assay of mushroom tyrosinase (L-Tyrosine substrate); type: biochemical; settings: for mechanism of inhibition of monophenolase activity: L-B and Dixon plots, nonlinear curve fitting; for Ki: read-out: apparent Ki, monophenolase (L-TYR)
Protocol: The direct effects of the compounds on the monophenolase activity of tyrosinase were tested using mushroom tyrosinase enzyme with a fixed concentration of L-Tyrosine (L-Tyr) as the substrate. Briefly, 80 µL of compounds prepared at different concentrations in 50 mM sodium phosphate (pH 6.8) buffer were added to wells of a 96-well microplate followed by 100 µL of 2 mM L-Tyr solution. The reaction was initiated by adding 20 µL of mushroom tyrosinase (final concentration of enzyme in wells was 12.5 µg/mL) and was monitored by measuring absorbance at 475 nm every 30 s over a 30 min period, using a microplate reader (Versamax®) in the kinetic mode. The slopes of the plots of absorbance vs. time were calculated for comparison of enzyme activity in the presence of each of the inhibitors to that of an inhibitor-free control and reported as percentage of control activity (%).
as §1, §2

[7] = fit to pure competitive inhibition
[8] = fit to pure noncompetitive inhibition
[9] = fit to pure uncompetitive inhibition

Compound | diphenolase inhibitory potency [1] | suppression of melanin levels ([2]; 20 µM) [%] | suppression of melanin levels ([2]; 25 µM) [%] | suppression of intracellular tyrosinase activity ([3]; 10 µM) [%] | suppression of intracellular tyrosinase activity ([3]; 20 µM) [%] | suppression of intracellular tyrosinase activity ([3]; 25 µM) [%] | inhibition at 20 µM [4] [%] | effect on cAMP levels ([5]; 48 h) | suppression of melanin levels ([2]; 10 µM) [%] | suppression of intracellular tyrosinase activity ([3]; 5 µM) [%] | inhibition at 10 µM ([4]; 10 µM) [%] | mechanism of inhibition of monophenolase activity [6] | mechanism of inhibition of diphenolase activity [1] | Vmax, diphenolase (L-DOPA) ([1]; competitive model fit) [mM/min] | Vmax, diphenolase (L-DOPA) ([1]; noncompetitive model fit) [mM/min] | Vmax, diphenolase (L-DOPA) ([1]; uncompetitive model fit) [mM/min] | inhibition at 5 µM ([4]; 5 µM) [%] | inhibition at 25 µM [4] [%] | further results
COC(=O)/C(C(=O)/C=C/c1ccc(O)c(OC)c1)=C(O)\C=C\c1ccc(O)c(OC)c1 [CMC2.5, 4-methoxycarbonyl curcumin] | somewhat weaker inhibitory potency | 34.84 | 31.40 | 19.98 | 23.16 | 26 | 14 | did not affect cAMP levels at any concentration | – | – | – | – | – | – | – | – | – | – | cell-free α-glucosidase activity ([4]; concentrations other than 20 µM): no change was observed at any other concentration
COC(=O)/C(C(=O)/C=C/c1ccc(O)cc1)=C(O)\C=C\c1ccc(O)cc1 [CMC2.14] | somewhat weaker inhibitory potency | – | – | 50.31 | – | – | – | did not affect cAMP levels at any concentration | 28.42 | 47.96 | 14.3 | – | – | – | – | – | – | – | –
COc1cc(/C=C/C(=O)/C(C(=O)Nc2ccccc2)=C(O)/C=C/c2ccc(O)c(OC)c2)ccc1O [CMC2.23] | somewhat weaker inhibitory potency | 33.68 | 37.87 | 30.04 | 44.64 | 51.47 | 19.8 | did not affect cAMP levels at any concentration | 28.63 | – | 16.5 | mixed, but predominantly competitive, mode of inhibition | mixed mechanism of inhibition; also recorded: mixed, but predominantly competitive, mode of inhibition | 38.0 | 39.05 | 39.0 | 15.5 | 17.2 | –
1,7-bis(4-hydroxy-3-methoxyphenyl)-1,6-heptadien-3,5-dione [PC, reference compound] | – | – | – | 47.85 | – | – | – | trend for attenuation of cAMP levels, but the levels were not significant | 20.92 | – | – | not a pure competitive inhibitor; also recorded: mixed inhibitor | not a pure competitive inhibitor; also recorded: mixed inhibitor | 44.67 | 48.28 | 47.52 | – | – | inhibition of monophenolase activity ([6]; 10 μM compound): 14.41%; inhibition of monophenolase activity ([6]; 20 μM compound): 21.31%; inhibition of monophenolase activity ([6]; 25 μM compound): 22.10%; Ki [6, 7]: 7.74 µM; Ki [6, 8]: 50.8 µM; Ki [6, 9]: 40.2 µM; IC50 ([6]; fixed substrate concentration (L-Tyr), read-out: IC50 for Monophenolase Inhibition): 67 ± 2.4 µM; inhibition of diphenolase activity ([1]; 5 μM compound): 14.47%; inhibition of diphenolase activity ([1]; 10 μM compound): 12.41%; inhibition of diphenolase activity ([1]; 20 μM compound): 14.19%; inhibition of diphenolase activity ([1]; 25 μM compound): 16.39%; Ki [1, 7]: 45.1 µM; Ki [1, 8]: 164 µM; Ki [1, 9]: 129 µM; IC50 ([1]; fixed substrate concentration (L-DOPA), read-out: IC50 for Diphenolase inhibition): 299 ± 35.6 µM; inhibition of cell-free α-glucosidase activity ([4]; 5 µM): 20.13%; inhibition of cell-free α-glucosidase activity ([4]; 10 µM): 22.13%
O=C(/C=C/c1ccc(O)cc1)/C(C(=O)Nc1ccccc1)=C(O)/C=C/c1ccc(O)cc1 [CMC2.24] | – | 43.53 | 41.07 | 53.76 | 64.25 | 68.81 | 35.3 | – | 32.54 | 38.6 | 25.6 | mixed mode of inhibition with a predominantly competitive mechanism | mixed mode of inhibition with a predominantly competitive mechanism | 36.0 | 43.69 | 41.99 | 27.1 | 41.3 | inhibition at 5 µM ([6]; 5 μM compound, 1 mM L-Tyr final): 32.1%; inhibition at 10 µM ([6]; 10 μM compound): 34.7%; inhibition at 20 µM ([6]; 20 μM compound): 34.8%; inhibition at 25 µM ([6]; 25 μM compound): 37%; inhibition at 20 µM ([1]; 20 μM compound): 35.4%; inhibition at 25 µM ([1]; 25 μM compound): 38.2%; fold higher level of melanin inhibition vs PC ([2]; 20 µM): 1.5 fold; fold higher level of melanin inhibition vs PC ([2]; 25 µM): 2 fold; attenuation of cAMP levels ([5]; 10 µM, 48 h (not significant)): 18.13%; attenuation of cAMP levels ([5]; 20 µM, 48 h): 38.18%; attenuation of cAMP levels ([5]; 25 µM, 48 h): 49.42%
